Source: patent US10385022B2, “3-amino-pyridines as GPBAR1 agonists” (HOFFMANN-LA ROCHE INC., priority 2011, dated 2019)

Biological target: human GPBAR1 receptor (Homo sapiens (Human), UniProt Q8TDU6)
Test: functional cAMP assay in CHO-dhfr(minus) cells expressing human GPBAR1 receptors
Assay type: cell-based
Conditions: CHO-dhfr(minus) cells expressing human GPBAR1, 30 min at 30° C.
In short: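 CHO-dhfr- cells were transfected with human GPBAR1, and a clone was chosen by cAMP response to lithocholic acid. EC50 values come from the cAMP read-out; specificity was checked in non-transfected CHO cells.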

Chain of human GPBAR1 receptor (Q8TDU6 whole entry): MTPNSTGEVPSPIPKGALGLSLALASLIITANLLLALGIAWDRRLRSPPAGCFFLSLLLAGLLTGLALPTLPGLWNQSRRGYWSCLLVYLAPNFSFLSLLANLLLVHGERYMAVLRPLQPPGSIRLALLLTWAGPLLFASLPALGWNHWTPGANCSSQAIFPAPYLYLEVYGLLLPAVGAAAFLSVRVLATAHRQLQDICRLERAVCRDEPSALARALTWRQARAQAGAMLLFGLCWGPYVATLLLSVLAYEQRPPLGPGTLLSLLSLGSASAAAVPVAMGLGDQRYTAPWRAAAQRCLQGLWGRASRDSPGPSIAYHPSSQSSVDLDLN

| EC50 [nM] | SMILES |
| --- | --- |
| 81 | CS(=O)(=O)c1cc(C(=O)N(CC#N)c2cnccc2-c2ccccc2OC(F)(F)F)cc(C(F)(F)F)c1 [Example 311, N-Cyanomethyl-3-methanesulfonyl-N-[4-(2-trifluoromethoxy-phenyl)-pyridin-3-yl]-5-trifluoromethyl-benzamide] |
| 2420 | COc1cc(F)ccc1-c1cc(C)ncc1N(C)C(=O)c1cc(SCCCCC(=O)O)cc(C(F)(F)F)c1 [Example 312, 5-(3-{[4-(4-Fluoro-2-methoxy-phenyl)-6-methyl-pyridin-3-yl]-methyl-carbamoyl}-5-trifluoromethyl-phenylsulfanyl)-pentanoic acid] |
| 1220 | CN(C(=O)c1cc(C(F)(F)F)cc(S(C)(=O)=O)c1)c1cnccc1-c1cccnc1Cl [Example 313, N-(2-Chloro-[3,4′]bipyridinyl-3′-yl)-3-methanesulfonyl-N-methyl-5-trifluoromethyl-benzamide] |
| 115 | COc1cc(F)ccc1-c1cc(C)ncc1N(C)C(=O)c1cc(C(F)(F)F)cc(S(=O)(=O)C2COC2)c1 [Example 314, N-[4-(4-Fluoro-2-methoxy-phenyl)-6-methyl-pyridin-3-yl]-N-methyl-3-(oxctane-3-sulfonyl)-5-trifluoromethyl-benzamide] |
| 451 | COc1cc(F)ccc1-c1cc(C)ncc1N(C)C(=O)c1cc(SCCCCC(=O)NCC(=O)O)cc(C(F)(F)F)c1 [Example 315, [5-(3-{[4-(4-Fluoro-2-methoxy-phenyl)-6-methyl-pyridin-3-yl]-methyl-carbamoyl}-5-trifluoromethyl-phenylsulfanyl)-pentanoylamino]-acetic acid] |
| 926 | COc1cc(F)c(Cl)cc1-c1cc(C)ncc1N(C)C(=O)c1cc(C(F)(F)F)cc(S(=O)(=O)CCCCC(=O)O)c1 [Example 316, 5-(3-{[4-(5-Chloro-4-fluoro-2-methoxy-phenyl)-6-methyl-pyridin-3-yl]-methyl-carbamoyl}-5-trifluoromethyl-benzenesulfonyl)-pentanoic acid] |
| 418 | COc1cc(F)ccc1-c1cc(C)ncc1N(C)C(=O)c1cc(C(F)(F)F)cc(S(=O)(=O)CCCCC(=O)NCC(=O)O)c1 [Example 317, [5-(3-{[4-(4-Fluoro-2-methoxy-phenyl)-6-methyl-pyridin-3-yl]-methyl-carbamoyl}-5-trifluoromethyl-benzenesulfonyl)-pentanoylamino]-acetic acid] |
| 1110 | Cc1cc(-c2ccccc2OC2COC2)c(N(C)C(=O)c2cc(C(F)(F)F)cc(S(C)(=O)=O)c2)cn1 [Example 318, 3-Methanesulfonyl-N-methyl-N-{6-methyl-4-[2-(oxetan-3-yloxy)-phenyl]-pyridin-3-yl}-5-trifluoromethyl-benzamide] |
| 3340 | CS(=O)(=O)c1cc(C(=O)N(CC(N)=O)c2cnccc2-c2ccccc2OC(F)(F)F)cc(C(F)(F)F)c1 [Example 319, N-Carbamoylmethyl-3-methanesulfonyl-N-[4-(2-trifluoromethoxy-phenyl)-pyridin-3-yl]-5-trifluoromethyl-benzamide] |
| 2720 | CN(C(=O)c1cc(C(F)(F)F)cc(S(C)(=O)=O)c1)c1cnccc1-c1cccnc1OC1CN(C(=O)OC(C)(C)C)C1 [Example 320, 3-{3′-[(3-Methanesulfonyl-5-trifluoromethyl-benzoyl)-methyl-amino]-[3,4′]bipyridinyl-2-yloxy}-azetidine-1-carboxylic acid tert-butyl ester] |
| 1880 | Cc1cc(-c2ccccc2OCC2COC2)c(N(C)C(=O)c2cc(C(F)(F)F)cc(S(C)(=O)=O)c2)cn1 [Example 321, 3-Methanesulfonyl-N-methyl-N-{6-methyl-4-[2-(oxetan-3-ylmethoxy)-phenyl]-pyridin-3-yl}-5-trifluoromethyl-benzamide] |
| 11 | CN(C(=O)c1cc(C(F)(F)F)cc(C(F)(F)F)c1)c1cnccc1-c1ccccc1 [Example 322, N-Methyl-N-(4-phenyl-pyridin-3-yl)-3,5-bis-trifluoromethyl-benzamide] |
| 104 | CN(C(=O)c1cc(C(F)(F)F)cc(S(C)(=O)=O)c1)c1cnccc1-c1ccccc1 [Example 323, 3-Methanesulfonyl-N-methyl-N-(4-phenyl-pyridin-3-yl)-5-trifluoromethyl-benzamide] |
